Laboratory results: patent US6090787A, “Antithrombotic agents” (Eli Lilly and Company, priority 1999, dated 2000)
Square brackets hold non-standard residues; d marks the D form. Peptide text beside a SMILES is read from it. dPip = O=C(O)[C@H]1CCCCN1; Nphe = O=C(O)CNCc1ccccc1; Nleu = CC(C)CNCC(=O)O; NEtG = CCNCC(=O)O

Key:
[1] = biological target: T1, tissue plasminogen activator (t-PA) (Homo sapiens, UniProt P00750); assay: Fibrinolytic protease selectivity, Kass, t-PA chromogenic assay; type: biochemical; settings: apparent association constant
T1 construct: purchased American Diagnostica, Greenwich, Conn
T1 sequence (P00750 36-562): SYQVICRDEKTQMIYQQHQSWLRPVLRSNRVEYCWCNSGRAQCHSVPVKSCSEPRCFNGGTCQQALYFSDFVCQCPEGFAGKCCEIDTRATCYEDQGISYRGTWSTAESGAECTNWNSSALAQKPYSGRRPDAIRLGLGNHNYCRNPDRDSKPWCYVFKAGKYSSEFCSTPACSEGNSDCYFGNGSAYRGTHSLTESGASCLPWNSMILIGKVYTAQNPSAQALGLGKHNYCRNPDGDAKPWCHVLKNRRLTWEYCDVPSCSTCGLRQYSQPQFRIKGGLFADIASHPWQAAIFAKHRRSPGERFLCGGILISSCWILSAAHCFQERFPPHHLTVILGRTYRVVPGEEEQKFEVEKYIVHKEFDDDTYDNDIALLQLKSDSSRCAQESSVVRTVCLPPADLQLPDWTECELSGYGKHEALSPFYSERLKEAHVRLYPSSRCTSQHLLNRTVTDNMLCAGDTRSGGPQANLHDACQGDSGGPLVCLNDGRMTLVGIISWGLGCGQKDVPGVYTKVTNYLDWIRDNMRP
Description: (§1) By substantially following the procedures described above for human thrombin, and using other human blood coagulation system serine proteases and proteases of the fibrinolytic system with the appropriate chromogenic substrates, identified below, selectivity of the compounds of the present invention with respect to the coagulation factor serine proteases and with respect to the fibrinolytic system serine proteases are evaluated as well as their substantial lack of interference with serine proteases of the fibrinolytic system. Thrombin inhibitors preferably should spare fibrinolysis induced by urokinase, tissue plasminogen activator (t-PA) and streptokinase. This would be important to the therapeutic use of such agents as an adjunct to streptokinase, t-PA or urokinase thrombolytic therapy and to the use of such agents as an endogenous fibrinolysis-sparing (with respect to t-PA and urokinase) antithrombotic agent. In addition to the lack of interference with the amidase activity of the fibrinolytic proteases, such fibrinolytic system sparing can be studied by the use of human plasma clots and their lysis by the respective fibrinolytic plasminogen activators.
(§2) Human plasmin is purchased from Boehringer Mannheim, Indianapolis, Indiana; nt-PA is purchased as single chain activity reference from American Diagnostica, Greenwich, Conn.; modified-t-PA6 (mt-PA6) is prepared at Eli Lilly and Company by procedure known in the art (See, Burck, et al., J. Biol. Chem., 265, […] (1990). Plasmin chromogenic substrate H--D--Val--Leu--Lys--p--nitroanilide and tissue plasminogen activator (t-PA) substrate H--D--Ile--Pro--Arg--p--nitroanilide are purchased from Kabi Vitrum, Stockholm, Sweden.

human thrombin = biological target: T2, human thrombin (Homo sapiens, UniProt P00734); assay: Inhibition of amidase activity of thrombin (Kass), chromogenic substrate; type: biochemical; settings: apparent association constant, mean over a range of concentrations
T2 construct: purified human thrombin, Enzyme Research Laboratories; purchased Enzyme Research Laboratories, South Bend, Indiana
Description: The assay is carried out by mixing 50 μL buffer (0.03 M Tris, 0.15 M NaCl, pH 7.4) with 25 μL of bovine thrombin or human thrombin solution (0.21 mg/mL of thrombostat bovine thrombin, Parke-Davis, or purified human thrombin, Enzyme Research Laboratories, South Bend, Indiana, at about 8 NIH units/mL, in the same buffer) and 25 μL of test compound in a solvent (in 50% aqueous methanol, v:v). The 150 μL of an aqueous solution of the chromogenic substrate (at 0.25 mg/mL) are added and the rates of hydrolysis of the substrate are measured by monitoring the reactions at 405 nm for the release of p-nitroaniline. Standard curves are constructed by plotting free thrombin concentration against hydrolysis rate. The hydrolysis rates observed with test compounds are then converted to "free thrombin" values in the respective assays by use of the standard curves. The bound thrombin (bound to test compound) is calculated by subtracting the amount of free thrombin observed in each assay from the known initial amount of thrombin used in the assay. The amount of free inhibitor in each assay is calculated by subtracting the number of moles of bound thrombin from the number of moles of added inhibitor (test compound).
The Kass value is the hypothetical equilibrium constant for the reaction between thrombin and the test compound (I). [formula]
Kass is calculated for a range of concentrations of test compounds and the mean value is reported in units of liter per mole.

human plasma [2] = assay: Human plasma anticoagulation, activated partial thromboplastin time (APTT); settings: concentration required to double the APTT, linear extrapolation
Description: (§3) Dog plasma and rat plasma is obtained from conscious mixed-breed hounds (either sex, Hazelton-LRE, Kalamazoo, Mich., U.S.A.) or from anesthetized male Sprague-Dawley rats (Harlan Sprague-Dawley, Inc., Indianapolis, Ind., U.S.A.) by venipuncture into 3.8 percent citrate. Fibrinogen is prepared from in-date ACD human blood as the fraction I-2 according to previous procedures and specifications. Smith, Biochem. J., 185, 1-11 (1980); and Smith, et al., Biochemistry, 11, 2958-2967 (1972). Human fibrinogen is also purchased as 98 percent pure/plasmin free from American Diagnostica, Greenwich, Conn. Coagulation reagents ACTIN, Thromboplastin, and Human plasma are from Baxter Healthcare Corp., Dade Division, Miami, Fla. Bovine thrombin from Parke-Davis ([…], Mich.) is used for coagulation assays in plasma.
(§4) Coagulation assay procedures are as previously described. Smith, et al., Thrombosis Research, 50, 163-174 (1988). A CoAScreener coagulation instrument (American LABor, Inc.) is used for all coagulation assay measurements. The prothrombin time (PT) is measured by adding 0.05 mL saline and 0.05 mL Thromboplastin-C reagent to 0.05 mL test plasma. The activated partial thromboplastin time (APTT) is measured by incubation of 0.05 mL test plasma with 0.05 mL Actin reagent for 120 seconds followed by 0.05 mL CaCl2 (0.02 M). The thrombin time (TT) is measured by adding 0.05 mL saline and 0.05 mL thrombin (10 NIH units/mL) to 0.05 mL test plasma. The compounds of formula I are added to human or animal plasma over a wide range of concentrations to determine prolongation effects on the APTT, PT, and TT assays. Linear extrapolations are performed to estimate the concentrations required to double the clotting time for each assay.

Human plasmin = biological target: T3, Human plasmin (Homo sapiens, UniProt P00747); assay: Fibrinolytic protease selectivity, Kass, plasmin chromogenic assay; type: biochemical; settings: apparent association constant
T3 construct: Human plasmin is purchased from Boehringer Mannheim; purchased Boehringer Mannheim, Indianapolis, Indiana
T3 sequence (P00747 581-810 limits assumed): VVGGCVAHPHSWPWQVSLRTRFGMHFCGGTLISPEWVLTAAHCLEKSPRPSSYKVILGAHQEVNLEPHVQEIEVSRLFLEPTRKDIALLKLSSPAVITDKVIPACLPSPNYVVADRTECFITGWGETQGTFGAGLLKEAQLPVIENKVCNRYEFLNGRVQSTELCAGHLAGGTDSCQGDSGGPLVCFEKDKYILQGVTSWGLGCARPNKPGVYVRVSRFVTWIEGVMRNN
T3 sequence (P00747 97-580 partner limits assumed): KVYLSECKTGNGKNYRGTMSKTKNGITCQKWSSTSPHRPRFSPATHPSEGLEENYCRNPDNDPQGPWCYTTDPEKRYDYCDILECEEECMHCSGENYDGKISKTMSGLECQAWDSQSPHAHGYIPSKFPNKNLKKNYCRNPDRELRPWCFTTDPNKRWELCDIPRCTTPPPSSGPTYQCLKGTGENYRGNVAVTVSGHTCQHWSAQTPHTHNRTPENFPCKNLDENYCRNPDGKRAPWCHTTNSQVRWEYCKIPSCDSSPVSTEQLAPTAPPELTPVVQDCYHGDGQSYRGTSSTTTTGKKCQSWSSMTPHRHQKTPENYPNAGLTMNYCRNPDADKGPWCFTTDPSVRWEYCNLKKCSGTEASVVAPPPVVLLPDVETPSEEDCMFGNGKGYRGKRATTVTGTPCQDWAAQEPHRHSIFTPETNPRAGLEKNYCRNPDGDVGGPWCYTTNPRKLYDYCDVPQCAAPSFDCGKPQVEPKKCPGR
Description: as §1, §2

factor Xa = biological target: T4, factor Xa (Homo sapiens, UniProt P00742); assay: Serine protease selectivity, Kass, factor Xa chromogenic assay; type: biochemical; settings: apparent association constant
T4 construct: Human factors X, Xa, IXa, XIa, and XIIa are purchased from Enzyme Research Laboratories; purchased Enzyme Research Laboratories, South Bend, Ind
T4 sequence (P00742 235-488 limits assumed): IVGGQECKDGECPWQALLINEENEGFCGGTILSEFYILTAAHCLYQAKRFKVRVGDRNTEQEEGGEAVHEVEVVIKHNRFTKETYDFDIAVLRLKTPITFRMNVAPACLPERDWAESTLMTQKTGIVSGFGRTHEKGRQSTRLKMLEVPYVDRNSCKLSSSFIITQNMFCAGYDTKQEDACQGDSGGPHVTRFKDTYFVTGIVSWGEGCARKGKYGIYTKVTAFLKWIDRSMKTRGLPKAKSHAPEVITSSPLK
T4 sequence (P00742 41-179 partner limits assumed): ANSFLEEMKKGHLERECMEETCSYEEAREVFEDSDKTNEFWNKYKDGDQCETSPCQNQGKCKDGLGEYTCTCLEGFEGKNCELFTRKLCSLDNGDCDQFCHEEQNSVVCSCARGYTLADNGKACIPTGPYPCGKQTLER
Description: as §1
(§5) Human factors X, Xa, IXa, XIa, and XIIa are purchased from Enzyme Research Laboratories, South Bend, Ind.; human urokinase from Leo Pharmaceuticals, Denmark; and recombinant activated Protein C (aPC) is prepared at Eli Lilly and Co. substantially according to U.S. Pat. No. 4,981,952 incorporated by reference herein in its entirety. Chromogenic substrates: N--Benzoyl--Ile--Glu--Gly--Arg--p--nitroanilide (for factor Xa); N--Cbz--D--Arg--Gly--Arg--p--nitroanilide (for factor IXa assay as the factor Xa substrate); Pyroglutamyl--Pro--Arg--p--nitroanilide (for Factor XIa and for aPC); H--D--Pro--Phe--Arg--p--nitroanilide (for factor XIIa); and Pyroglutamyl--Gly--Arg--p--nitroanilide (for urokinase); are purchased from KabiVitrum, Stockholm, Sweden, or from Midwest Biotech, Fishers, Indiana. Bovine trypsin is purchased from Worthington Biochemicals, Freehold, N.J., and human plasma kallikrein from Kabi Vitrum, Stockholm, Sweden. Chromogenic substrate H--D--Pro--Phe--Arg--p--nitroanilide for plasma kallikrein is purchased from Kabi Vitrum, Stockholm, Sweden. N--Benzoyl--Phe--Val--Arg--p--nitroanilide, the substrate for human thrombin and for trypsin, is synthesized according to procedures described above for the compounds of the present invention, using known methods of peptide coupling from commercially available reactants or purchased from Midwest Biotech, Fishers, Ind.

human plasma [3] = assay: Human plasma anticoagulation, thrombin time (TT); settings: concentration required to double the thrombin time, linear extrapolation
Description: as §3, §4

human plasma [4] = assay: Human plasma anticoagulation, prothrombin time (PT); settings: concentration required to double the PT, linear extrapolation
Description: as §3, §4

Bovine trypsin = biological target: T5, Bovine trypsin (Bos taurus, UniProt P00760); assay: Serine protease selectivity, Kass, trypsin chromogenic assay; type: biochemical; settings: apparent association constant
T5 construct: purchased Worthington Biochemicals, Freehold, N.J
T5 sequence (P00760 24-246): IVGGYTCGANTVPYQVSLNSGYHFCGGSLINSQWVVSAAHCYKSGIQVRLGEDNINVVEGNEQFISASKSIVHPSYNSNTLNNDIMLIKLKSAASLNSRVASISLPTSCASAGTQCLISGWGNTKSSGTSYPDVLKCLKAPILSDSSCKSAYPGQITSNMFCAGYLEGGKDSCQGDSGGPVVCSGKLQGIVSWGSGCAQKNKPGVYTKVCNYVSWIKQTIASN
Description: as §1, §5

SMILES	Enzyme Kass t-PA [1] [L/mol × 10^6]	Enzyme Kass Human Thrombin (human thrombin) [L/mol × 10^6]	Human Plasma Anticoagulation 2 × Clotting time APTT (human plasma [2])	Enzyme Kass Plasmin (Human plasmin) [L/mol × 10^6]	Enzyme Kass Xa (factor Xa) [L/mol × 10^6]	Human Plasma Anticoagulation 2 × Clotting time TT (human plasma [3]) [ng/mL]	Human Plasma Anticoagulation 2 × Clotting time PT (human plasma [4])	Enzyme Kass Trypsin (Bovine trypsin) [L/mol × 10^6]
CCN(CC(=O)N[C@H](C=O)CCCNC(=N)N)C(=O)[C@H]1CCCCN1.Cl.Cl [Example 2, D-homoprolyl-N-ethylglycyl-L-argininal dihydrochloride] (H-[dPip]-[NEtG]-Arg-aldehyde)	0.005	33	2,600 ng/mL	0.013	0.039	160	5,000 ng/mL	1.3
CCCN(CC(=O)N[C@H](C=O)CCCNC(=N)N)C(=O)[C@H]1CCCCN1.Cl.Cl [Example 3, D-homoprolyl-N-n-propylglycyl-L-argininal dihydrochloride]	0.004	34	2,100 ng/mL	0.045	0.084	77	2,000 ng/mL	2.4
CC(C)N(CC(=O)NC(C=O)CCCNC(=N)N)C(=O)C1CCCCN1.Cl.Cl [Example 4, D--hPro--N(i--Pr)Gly--ArgH.2HCl]	0.001	9.7	12,000 ng/mL	0.031	0.074	230	14,000 ng/mL	0.5
CC(C)CN(CC(=O)N[C@H](C=O)CCCNC(=N)N)C(=O)[C@H]1CCCCN1.Cl.Cl [Example 5, D--hPro--N(i--Bu)Gly--ArgH.2HCl] (H-[dPip]-[Nleu]-Arg-aldehyde)	0.002	24	3,800 ng/mL	0.050	0.060	100	4,900 ng/mL	1.6
Cl.Cl.N=C(N)NCCC[C@@H](C=O)NC(=O)CN(Cc1ccccc1)C(=O)[C@H]1CCCCN1 [Example 7, D--hPro--N(Bn)Gly--ArgH.2HCl] (H-[dPip]-[Nphe]-Arg-aldehyde)	0.010	11	3,700 ng/mL	0.13	0.25	120	4,400 ng/mL	10
Cl.Cl.N=C(N)NCCC[C@@H](C=O)NC(=O)CN(CCCc1ccccc1)C(=O)[C@H]1CCCCN1 [Example 9, D--hPro--N(PhCH2 CH2 CH2)Gly--ArgH.2HCl]	0.006	24	2,200 ng/mL	0.12	0.31	55	3,000 ng/mL	6.0
Cl.Cl.NC(N)=NCCC[C@@H](C=O)NC(=O)CN(CCC1CCCCC1)C(=O)[C@H]1CCCCN1 [Example 10, D--hPro--N(cyclohexyl--CH2 CH2)Gly--ArgH.2HCl]	0.007	5.4	4,100 ng/mL	0.33	0.22	230	6,900 ng/mL	5.8
Cl.Cl.N=C(N)NCCC[C@@H](C=O)NC(=O)CN(C(=O)[C@H]1CCCCN1)c1ccccc1 [Example 11, D--hPro--N(Ph)Gly--ArgH.2HCl]	0.0039	16	2,200 ng/mL	0.036	0.21	120	3,100 ng/mL	1.1
